Assay results: the supplement of paper PMC13380429

How the values were obtained:
Conditions in all cases: 72 h
U2OS [1] = test: cell viability relative to DMSO; higher = less toxic
Calu-3 [2] = test: as above
Caco-2 [3] = test: as above
Vero E6 [4] = test: as above
HepG2 [5] = test: as above
U2OS [6] = test: relative viability EC50 (midpoint between 100% and the lowest measured viability); higher = less toxic
Calu-3 [7] = test: as above
Caco-2 [8] = test: as above
Vero E6 [9] = test: as above
HepG2 [10] = test: as above
U2OS [11] = test: drug sensitivity score (DSS) for viability; higher = more toxic; extreme values may be limits of the assay
Calu-3 [12] = test: as above
Caco-2 [13] = test: as above
Vero E6 [14] = test: as above
HepG2 [15] = test: as above

SMILES | cell viability (U2OS [1]; 1 nM) | cell viability (U2OS [1]; 10 nM) | cell viability (U2OS [1]; 100 nM) | cell viability (U2OS [1]; 1000 nM) | cell viability (U2OS [1]; 10000 nM) | cell viability (Calu-3 [2]; 1 nM) | cell viability (Calu-3 [2]; 10 nM) | cell viability (Calu-3 [2]; 100 nM) | cell viability (Calu-3 [2]; 1000 nM) | cell viability (Calu-3 [2]; 10000 nM) | cell viability (Caco-2 [3]; 1 nM) | cell viability (Caco-2 [3]; 10 nM) | cell viability (Caco-2 [3]; 100 nM) | cell viability (Caco-2 [3]; 1000 nM) | cell viability (Caco-2 [3]; 10000 nM) | cell viability (Vero E6 [4]; 1 nM) | cell viability (Vero E6 [4]; 10 nM) | cell viability (Vero E6 [4]; 100 nM) | cell viability (Vero E6 [4]; 1000 nM) | cell viability (Vero E6 [4]; 10000 nM) | cell viability (HepG2 [5]; 1 nM) | cell viability (HepG2 [5]; 10 nM) | cell viability (HepG2 [5]; 100 nM) | cell viability (HepG2 [5]; 1000 nM) | cell viability (HepG2 [5]; 10000 nM) | relative viability EC50 (U2OS [6]) | relative viability EC50 (Calu-3 [7]) | relative viability EC50 (Caco-2 [8]) | relative viability EC50 (Vero E6 [9]) | relative viability EC50 (HepG2 [10]) | drug sensitivity score (U2OS [11]) | drug sensitivity score (Calu-3 [12]) | drug sensitivity score (Caco-2 [13]) | drug sensitivity score (Vero E6 [14]) | drug sensitivity score (HepG2 [15])
Cc1cc(C)c2c(N)c(C(=O)NCc3ccc(Cl)cc3)sc2n1 | 98.9% | 103% | 99.7% | 102% | 105% | 101% | 92.2% | 97% | 108% | 96.3% | 95.7% | 91.5% | 107% | 89.5% | 108% | 101% | 91.8% | 108% | 90.4% | 105% | 102% | 105% | 101% | 91.6% | 98.5% | > 10 µM | > 10 µM | > 10 µM | > 10 µM | > 10 µM | 0 | 0 | 0 | 0 | 0
CN(CC[C@@H](Oc1ccc(-c2ccccc2)cc1)c1ccc(F)cc1)CC(=O)O [ALX-5407] | 98.3% | 96.6% | 99% | 93.8% | 98.7% | 103% | 85.9% | 98.6% | 98.3% | 104% | 105% | 98.9% | 102% | 94.8% | 95.6% | 101% | 99.1% | 97.7% | 100% | 96.4% | 102% | 108% | 92.7% | 95.7% | 96.7% | > 10 µM | > 10 µM | > 10 µM | > 10 µM | > 10 µM | 0 | 0 | 0 | 0 | 0
CC1Cc2ccccc2N1NC(=O)c1ccc(Cl)c(S(N)(=O)=O)c1 (stereo not given) [indapamide] | 101% | 96.9% | 97.9% | 96.7% | 98.3% | 105% | 110% | 105% | 96.7% | 96% | 94.8% | 96% | 94.3% | 94.8% | 93.3% | 100% | 100% | 103% | 97.4% | 92.9% | 95.5% | 95.7% | 94.2% | 99.5% | 97.1% | > 10 µM | > 10 µM | > 10 µM | > 10 µM | > 10 µM | 0 | 0 | 0 | 0 | 0
CC(C)[C@H](N)C(=O)OCCOCn1cnc2c(=O)nc(N)[nH]c21 [valaciclovir] | 94% | 101% | 96% | 105% | 110% | 103% | 98.8% | 88.4% | 111% | 90.3% | 103% | 96% | 104% | 99.4% | 104% | 90.1% | 92% | 86.5% | 86.1% | 105% | 103% | 92.5% | 104% | 99.5% | 101% | > 10 µM | > 10 µM | > 10 µM | > 10 µM | > 10 µM | 0 | 0 | 0 | 0 | 0
